Laboratory results from US20120219615A1, “Therapeutic Use of a TLR Agonist and Combination Therapy” (The Trustees of the University of Pennsylvania, priority 2010, published 2012).
Where two headings read alike, the source gives them in different places.

Experiments:
[1] = Phase I clinical study: pharmacokinetics after subcutaneous administration; assay type: in vivo; conditions: human; for DN AUC(0-∞) / DN Cmax: dose normalized; for DN AUC(0-∞) / DN Cmax / AUC(0-inf) / Cmax / half-life / Tmax: first dose; for AUC(0-inf) / Cmax / half-life / Tmax: plasma, sc
Procedure: Study Procedures: VTX-2337 was administered weekly via subcutaneous injection on Days 1, 8, and 15 of a 28-day dosing cycle for two cycles. Using a modified Fibonacci dose-escalation scheme, successive cohorts received doses ranging from 0.1 mg/m^2 to 3.9 mg/m^2 of VTX-2337. Plasma samples were collected for pharmacokinetic analysis after the first dose of the first treatment cycle and for pharmacodynamic analyses after the first dose of the first and second treatment cycles.
Samples were collected at 0.5, 1, 1.5, 2, 4, 8, and 24 hours after subcutaneous administration of the first dose of VTX-2337 and plasma levels of VTX-2337 were quantified by LC-MS/MS. VTX-2337 was rapidly absorbed into systemic circulation with the mean Tmax occurring between 0.5 and 0.8 hours following dosing. […] Peak plasma levels (Cmax) and total systemic exposure both increased with increasing dose. Dose normalized (DN) values for Cmax and AUC(0-∞) were calculated.

TLR7 = biological target: T1, TLR7 (Homo sapiens, UniProt Q9NYK1); experiment: IFNα production in PBMCs (marker of TLR7 activation); assay type: cell-based; conditions: PBMCs from 15 healthy donors
T1 construct: expressed in transfected cells; host or cells: HEK293
T1 sequence (Q9NYK1 27-1049): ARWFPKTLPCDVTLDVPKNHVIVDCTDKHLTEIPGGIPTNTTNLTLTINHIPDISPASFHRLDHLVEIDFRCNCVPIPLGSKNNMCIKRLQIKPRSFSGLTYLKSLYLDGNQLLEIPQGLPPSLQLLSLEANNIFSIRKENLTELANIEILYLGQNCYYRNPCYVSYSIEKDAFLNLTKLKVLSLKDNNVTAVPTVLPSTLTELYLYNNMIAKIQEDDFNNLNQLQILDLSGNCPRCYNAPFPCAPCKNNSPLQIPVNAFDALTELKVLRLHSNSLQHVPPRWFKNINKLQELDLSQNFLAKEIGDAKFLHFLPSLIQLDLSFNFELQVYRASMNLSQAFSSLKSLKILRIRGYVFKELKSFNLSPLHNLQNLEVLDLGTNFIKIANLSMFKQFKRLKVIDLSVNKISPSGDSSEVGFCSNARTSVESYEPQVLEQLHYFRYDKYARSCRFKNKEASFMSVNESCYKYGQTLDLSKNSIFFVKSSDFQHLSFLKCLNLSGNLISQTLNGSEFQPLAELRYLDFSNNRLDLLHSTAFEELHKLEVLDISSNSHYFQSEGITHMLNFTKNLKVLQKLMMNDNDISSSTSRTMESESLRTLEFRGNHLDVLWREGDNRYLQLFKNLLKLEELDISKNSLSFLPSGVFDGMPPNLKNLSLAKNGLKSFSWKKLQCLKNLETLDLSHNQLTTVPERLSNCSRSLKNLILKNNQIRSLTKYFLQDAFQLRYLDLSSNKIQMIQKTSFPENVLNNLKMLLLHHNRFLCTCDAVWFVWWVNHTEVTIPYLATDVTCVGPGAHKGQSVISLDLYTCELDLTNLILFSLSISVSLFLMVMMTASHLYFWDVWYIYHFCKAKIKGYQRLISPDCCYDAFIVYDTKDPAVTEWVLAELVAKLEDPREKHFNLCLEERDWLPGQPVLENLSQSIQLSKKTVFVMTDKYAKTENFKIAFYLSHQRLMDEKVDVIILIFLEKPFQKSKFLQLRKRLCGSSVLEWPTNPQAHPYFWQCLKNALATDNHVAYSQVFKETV
Procedure: The half-maximal effective concentration (EC50) for VTX-2337 activation of TLR8 and TLR7 was assessed in peripheral blood mononuclear cells (PBMCs) from 15 healthy donors and also in HEK293 cells transfected with TLR8 or TLR7 and an NF-κB driven reporter gene. […] Also it was observed that VTX-2337 had no activity on TLR2, TLR3, TLR4, TLR5, TLR6, or TLR9 at concentrations up to 25 μM.

With `CCCN(CCC)C(=O)C1=Cc2ccc(-c3ccc(C(=O)N4CCCC4)cc3)cc2N=C(N)C1` [VTX-2337, 2-amino-N,N-dipropyl-8-(4-(pyrrolidine-1-carbonyl)phenyl)-3H-benzo[b]azepine-4-carboxamide] the “DN AUC(0-∞)” value ([1]; s.c., 0.1 mg/m^2) was 31.2 (ng · hr/mL)/(mg/m^2), the “DN Cmax” value ([1]; s.c., 0.1 mg/m^2) was 15.2 (ng/ml)/(mg/m^2) and the “DN AUC(0-∞)” value ([1]; s.c., 0.2 mg/m^2) was 23.7 (ng · hr/mL)/(mg/m^2). For the same compound, the “DN Cmax” value ([1]; s.c., 0.2 mg/m^2) was 9.9 (ng/ml)/(mg/m^2), the “DN AUC(0-∞)” value ([1]; s.c., 0.4 mg/m^2) was 27.4 (ng · hr/mL)/(mg/m^2) and the “DN Cmax” value ([1]; s.c., 0.4 mg/m^2) was 16.7 (ng/ml)/(mg/m^2). The “DN AUC(0-∞)” value ([1]; s.c., 0.8 mg/m^2) was 24.0 (ng · hr/mL)/(mg/m^2), the “DN Cmax” value ([1]; s.c., 0.8 mg/m^2) was 7.4 (ng/ml)/(mg/m^2) and the “DN AUC(0-∞)” value ([1]; s.c., 1.3 mg/m^2) was 22.7 (ng · hr/mL)/(mg/m^2). The “DN Cmax” value ([1]; s.c., 1.3 mg/m^2) was 8.4 (ng/ml)/(mg/m^2), the “DN AUC(0-∞)” value ([1]; s.c., 2.0 mg/m^2) was 29.6 (ng · hr/mL)/(mg/m^2) and the “DN Cmax” value ([1]; s.c., 2.0 mg/m^2) was 7.3 (ng/ml)/(mg/m^2). For the same compound, the “DN AUC(0-∞)” value ([1]; s.c., 2.8 mg/m^2) was 28.7 (ng · hr/mL)/(mg/m^2), the “DN Cmax” value ([1]; s.c., 2.8 mg/m^2) was 7.1 (ng/ml)/(mg/m^2) and the “DN AUC(0-∞)” value ([1]; s.c., 3.9 mg/m^2) was 20.8 (ng · hr/mL)/(mg/m^2). The “DN Cmax” value ([1]; s.c., 3.9 mg/m^2) was 5.9 (ng/ml)/(mg/m^2), the “pharmacokinetics over the dose ranges evaluated” value ([1]; s.c., 0.1-3.9 mg/m^2) was “appeared to be linear” and the AUC(0-inf) ([1]; 0.1 mg/m^2 (~0.0022 mg/kg)) was 3.12 ng·h/mL. For the same compound, the Cmax ([1]; 0.1 mg/m^2 (~0.0022 mg/kg)) was 1.52 ng/mL, the AUC(0-inf) ([1]; 0.2 mg/m^2 (~0.0054 mg/kg)) was 4.74 ng·h/mL and the Cmax ([1]; 0.2 mg/m^2 (~0.0054 mg/kg)) was 1.97 ng/mL. For the same compound, the AUC(0-inf) ([1]; 0.4 mg/m^2 (~0.011 mg/kg)) was 10.9 ng·h/mL, the Cmax ([1]; 0.4 mg/m^2 (~0.011 mg/kg)) was 6.69 ng/mL and the AUC(0-inf) ([1]; 0.8 mg/m^2 (~0.022 mg/kg)) was 19.2 ng·h/mL. The Cmax ([1]; 0.8 mg/m^2 (~0.022 mg/kg)) was 5.93 ng/mL, the AUC(0-inf) ([1]; 1.3 mg/m^2 (~0.035 mg/kg)) was 29.5 ng·h/mL and the Cmax ([1]; 1.3 mg/m^2 (~0.035 mg/kg)) was 10.9 ng/mL. It also gave an AUC(0-inf) ([1]; 2.0 mg/m^2 (~0.054 mg/kg)) of 59.1 ng·h/mL, a Cmax ([1]; 2.0 mg/m^2 (~0.054 mg/kg)) of 14.6 ng/mL and an AUC(0-inf) ([1]; 2.8 mg/m^2 (~0.076 mg/kg)) of 80.3 ng·h/mL. For the same compound, the Cmax ([1]; 2.8 mg/m^2 (~0.076 mg/kg)) was 19.9 ng/mL, the AUC(0-inf) ([1]; 3.9 mg/m^2 (~0.105 mg/kg)) was 81.1 ng·h/mL and the Cmax ([1]; 3.9 mg/m^2 (~0.105 mg/kg)) was 23 ng/mL. For the same compound, the half-life ([1]; s.c., 0.1 mg/m^2 (~0.0022 mg/kg), read-out: T1/2 (converted)) was 1.7 h, the Tmax ([1]; s.c., 0.1 mg/m^2 (~0.0022 mg/kg), read-out: Tmax) was 0.5 h and the half-life ([1]; s.c., 0.2 mg/m^2 (~0.0054 mg/kg), read-out: T1/2 (converted)) was 3 h. The Tmax ([1]; s.c., 0.2 mg/m^2 (~0.0054 mg/kg), read-out: Tmax) was 0.8 h, the half-life ([1]; s.c., 0.4 mg/m^2 (~0.011 mg/kg), read-out: T1/2 (converted)) was 6.6 h and the Tmax ([1]; s.c., 0.4 mg/m^2 (~0.011 mg/kg), read-out: Tmax) was 0.5 h. For the same compound, the half-life ([1]; s.c., 0.8 mg/m^2 (~0.022 mg/kg), read-out: T1/2 (converted)) was 5.3 h, the Tmax ([1]; s.c., 0.8 mg/m^2 (~0.022 mg/kg), read-out: Tmax) was 0.5 h and the half-life ([1]; s.c., 1.3 mg/m^2 (~0.035 mg/kg), read-out: T1/2 (converted)) was 5.6 h. For the same compound, the Tmax ([1]; s.c., 1.3 mg/m^2 (~0.035 mg/kg), read-out: Tmax) was 0.5 h, the half-life ([1]; s.c., 2.0 mg/m^2 (~0.054 mg/kg), read-out: T1/2 (converted)) was 6.7 h and the Tmax ([1]; s.c., 2.0 mg/m^2 (~0.054 mg/kg), read-out: Tmax) was 0.5 h. It also gave a half-life ([1]; s.c., 2.8 mg/m^2 (~0.076 mg/kg), read-out: T1/2 (converted)) of 5.7 h, a Tmax ([1]; s.c., 2.8 mg/m^2 (~0.076 mg/kg), read-out: Tmax) of 0.5 h and a half-life ([1]; s.c., 3.9 mg/m^2 (~0.105 mg/kg), read-out: T1/2 (converted)) of 5.3 h. For the same compound, the Tmax ([1]; s.c., 3.9 mg/m^2 (~0.105 mg/kg), read-out: Tmax) was 0.5 h, the Tmax ([1]; s.c., across cohorts 0.1-3.9 mg/m^2, read-out: mean Tmax) was 0.5 to 0.8 h and the half-life ([1]; s.c., across cohorts 0.1-3.9 mg/m^2, read-out: mean half-life (t1/2)) was 1.7 to 6.7 h. It also gave an EC50 (TLR7) greater than 3.33 µM.
